This note sets out measurements from article PMC11678869, “Functional Role of Odorant-Binding Proteins in Response to Sex Pheromone Component Z8-14:Ac in Grapholita molesta (Busck)” (Insects, 2024).

One assay concerns PFM male antennae. Briefly: Electroantennogram (EAG) analysis. More on the design: species or system Grapholita funebrana. To be noted: 20, 200 and 2000 μg doses. The procedure: Electroantennogram (EAG) equipment (Syntech, Hilversum, The Netherlands) was used to record the antennal responses of the OFM and PFM adults to Z8-12:Ac, E8-12:Ac, Z8-12:OH, Z8-14:Ac, and Z10-14:Ac. These sex pheromone compounds were diluted with liquid paraffin to prepare a stimulus solution of 100 μg/μL, which was subsequently diluted to 10 and 1 μg/μL. Antenna from 3-day-old OFM and 2- to 4-day-old PFM virgin males were excised at its base, with the distal part of the terminal segment being removed. Then, the treated antenna was attached to electrode holders with SpectraR360 conducting gel. A stimulus controller (model CS-55, Syntegon Technology, Waiblingen, Germany) continuously supplied a humidified air stream at a rate of 500 mL/min. Then, 20 μL of each stimulus solution was adsorbed onto a twice-folded filter paper strip (0.5 cm × 4 cm) placed on the wide section of a l mL pipette tip, which served as an odorant cartridge. Vapor stimuli were delivered by an air compressor into the constant air stream described above, flowing in a copper delivery tube (i.d. 8 mm) with the outlet positioned approximately 1 cm from the antenna. The EAG amplitude tests of the OFM and PFM males’ responses to sex pheromones started with solvent control stimuli (20 μL of liquid paraffin), followed by stimulation with 20, 200, and 2000 μg doses (20 μL of 1.0, 10.0, and 100.0 μg/μL of liquid paraffin solutions, respectively) of stimulus in sequence. The solvent control was performed at the end of the run. To control for variations among antennae, each sample was tested on 10 antennae of different males. The EAG signals and data were analyzed using EAG 2000 software (Syntech, Hilversum, The Netherlands). The corrected EAG amplitude value = absolute EAG amplitude value − (EAGck1 + EAGck2)/2, where EAGck1 and EAGck2 represent the absolute EAG amplitude values of the solvent control before and after measuring each stimulus, respectively. The relative EAG response of the OFM and PFM males to the same doses of sex pheromones were subjected to an analysis of independent sample t-test (p = 0.05) using SPSS version 23.0 (IBM).

For another assay, the target named is GmolPBP2 mutant R109A (Grapholita molesta, UniProt A0A059VC28, R134A). Nature of the assay: Fluorescence competitive binding assay, GmolPBP2 mutant. The procedure:
(§1) The binding affinities of three rGmolPBPs and two rGmolGOBPs for Z8-14:Ac were determined using an F-2700 fluorescence spectrophotometer (Hitachi, Tokyo, Japan). First, we measured the dissociation constants (Kd) of the rGmolPBPs (or rGmolGOBPs) binding to 1−NPN. Each protein was diluted to 2 μM with 20 mM Tris-HCl buffer (pH 7.4); then, 2 mL of the protein solution was transferred to a quartz cuvette and titrated with 1 mM 1−NPN to a final concentration of 1–18 μM. As the doses of 1−NPN were increased, the increasing amplitude of the fluorescence intensity decreased, and finally, the binding of the protein to 1−NPN reached saturation. The Kd values were calculated using the nonlinear regression method and the Scatchard equation. Second, we measured the inhibitory constant (Ki) of Z8-14:Ac’s competitive binding with each rGmolPBP (or rGmolGOBP) from the protein/1−NPN complex. The initial fluorescence intensity values were measured after a 2 min reaction in 2 mL solution of 20 mM Tris-HCl (pH 7.4) containing 2 µM rGmolPBP (or rGmolGOBP) protein and 2 µM 1−NPN. Then, the solution was titrated with aliquots of 1 mM Z8-14:Ac to obtain final concentrations in the range of 1–14 µM, and the fluorescence intensity value of each reaction was recorded. The Ki values were calculated using the following equation: Ki = [IC50]/(1 + [1 − NPN]/Kd) where IC50 is the concentration of Z8-14:Ac when half of the initial fluorescence intensity value of the rGmolPBP (or GmolGOBP)/1−NPN complex is replaced, [1 − NPN] represents the concentration of free 1−NPN, and Kd is the dissociation constant of the rGmolPBP (or GmolGOBP)/1−NPN complex.
(§2) Five amino acids—Phe12, Leu68, Ile94, Arg109, and Ile113—were identified as having lower binding free energies for GmolPBP2 interaction with Z8-14:Ac. To assess their role in binding, these residues were individually mutated to alanine using site-directed mutagenesis. Primers for mutagenesis were designed following the protocols recommended by the Fast Mutagenesis System (TransGen Biotech, Beijing, China) (Table S1). These mutations were introduced into the pET-28a(+)–GmolPBP2 plasmid using a Fast Mutagenesis System kit ([…]) and site-directed mutagenesis primers generating the mutants F12A, L68A, I94A, R109A, and I113A, respectively. Each plasmid was verified by DNA sequencing to confirm the presence of the desired mutation. Expression and purification of the mutated proteins followed the same protocols used for the wild-type GmolPBP2. The binding affinities of the five mutants for Z8-14:Ac were determined via fluorescence competitive binding assays. An increase in Ki values for the mutants relative to the wild-type GmolPBP2 would indicate that the corresponding amino acid residues may be crucial for binding to Z8-14:Ac.

The target of another assay is GmolPBP2 mutant L68A (Grapholita molesta, UniProt A0A059VC28, L93A). Described as above. As for the experimental part:
as §1, §2

The target of another assay is GmolPBP2 mutant I94A (Grapholita molesta, UniProt A0A059VC28, I119A). Described as above. The procedure: as §1, §2
Chain of GmolPBP2 mutant I94A (A0A059VC28 entry or part of it I119A): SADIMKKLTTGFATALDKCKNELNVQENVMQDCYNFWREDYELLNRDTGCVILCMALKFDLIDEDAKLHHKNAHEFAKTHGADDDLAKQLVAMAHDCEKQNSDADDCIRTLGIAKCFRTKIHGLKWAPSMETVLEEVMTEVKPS
A further assay concerns the target GmolPBP2 mutant I113A (Grapholita molesta, UniProt A0A059VC28, I138A). Described as above. The procedure:
as §1, §2

The next assay has as its target GmolPBP2 mutant F12A (Grapholita molesta, UniProt A0A059VC28, F37A). Described as above. The procedure: as §1, §2

Chain of GmolPBP2 mutant L68A (A0A059VC28 entry or part of it L93A): as the sequence (A0A059VC28 entry or part of it I119A) above, with L68A, A94I counted along it
Chain of GmolPBP2 mutant I113A (A0A059VC28 entry or part of it I138A): as the sequence (A0A059VC28 entry or part of it I119A) above, with A94I, I113A counted along it
Chain of GmolPBP2 mutant R109A (A0A059VC28 entry or part of it R134A): as the sequence (A0A059VC28 entry or part of it I119A) above, with A94I, R109A counted along it
Chain of GmolPBP2 mutant F12A (A0A059VC28 entry or part of it F37A): as the sequence (A0A059VC28 entry or part of it I119A) above, with F12A, A94I counted along it

Consider `CCCCC/C=C\CCCCCCCOC(C)=O` [Z8-14:Ac, (Z)-8-tetradecenyl acetate], for which the “EAG response of PFM males” value in the assay on PFM male antennae is given as “moderate EAG response”. The IC50 on GmolPBP2 mutant R109A was 1260 ± 29 nM; at GmolPBP2 mutant L68A, 1130 ± 26 nM; on GmolPBP2 mutant I94A it was 1082 ± 8 nM; on GmolPBP2 mutant I113A, 980 ± 38 nM; at GmolPBP2 mutant F12A, above 14000 nM. Besides, the Ki at GmolPBP2 mutant R109A was 655 ± 15 nM; at GmolPBP2 mutant L68A it was 589 ± 7 nM; on GmolPBP2 mutant I94A, 564 ± 4 nM; on GmolPBP2 mutant I113A, 520 ± 20 nM; on GmolPBP2 mutant F12A, above 14000 nM. Besides, the “binding affinity relative to wild-type GmolPBP2” value is reported as “did not significantly affect the binding affinity” on GmolPBP2 mutant R109A (mutant R109A); “binding affinities comparable to the wild-type” at GmolPBP2 mutant L68A (mutant L68A); “binding affinities comparable to the wild-type” on GmolPBP2 mutant I94A (mutant I94A); “binding affinities comparable to the wild-type” on GmolPBP2 mutant I113A (mutant I113A); “lost its affinity” on GmolPBP2 mutant F12A (mutant F12A).

What is called IC50 is the concentration at which inhibition is half-maximal. Low readings indicate higher potency, high ones lower potency. A word on the Ki: it is the dissociation constant of the complex between target and ligand, obtained from inhibition or displacement. Read a high Ki as weaker binding.
